ChEMBL document CHEMBL5584238, “Psammaplin A analogues with modified disulfide bond targeting histone deacetylases: Synthesis and biological evaluation” (Eur J Med Chem, 2024)

Test: Toxicity in mouse assessed as mortality at 5 mg/kg, ip administered every 2 days for 26 days
Assay type: organism-based
Conditions: in vivo, 624 h, time 26 day

O=C(NCC[Se][Se]CCNC(=O)/C(Cc1ccc(O)c(Br)c1)=N/O)/C(Cc1ccc(O)c(Br)c1)=N/O
Activity: Toxic
